Test system: participants with SSc-RP
Assay: Average severity of weekly RP attacks (VAS 0-10 cm scale)
Assay type: in vivo, human
Text: The absolute change in average severity of weekly RP attacks (VAS 0-10 cm scale) from baseline to the end of each Dosing Period was and will be a secondary outcome variable. The sponsor-developed participant-informed diary will be used to record data. Average severity of weekly RP attacks is defined as the total severity scores of RP attacks divided by total number of RP attacks within the last 7 days of each dosing period. Total severity scores of RP attacks during the last 7 days of screening period divided by the total number of RP attacks will be used as baseline for the analysis of all periods. The variable will be calculated similar to frequency data as before.

[1] = Cilnidipine 10 mg, n=1, Excluding Outliers, ITT Population - Part A
[2] = Cilnidipine 10 mg, n=1, ITT Population - Part A
[3] = Cilnidipine 10 mg, n=1, by Baseline RCS, first subgroup, ITT Population - Part A
[4] = Cilnidipine 10 mg, Excluding Outliers, ITT Population - Part A
[5] = Cilnidipine 10 mg, Excluding Outliers, by Baseline RCS, first subgroup, ITT Population - Part A
[6] = Cilnidipine 10 mg, ITT Population - Part A
[7] = Cilnidipine 10 mg, first Baseline RCS subgroup block (not named), ITT Part A
[8] = Cilnidipine 10 mg, first Baseline RCS subgroup block (not named), ITT Part A, score 0-10
[9] = Cilnidipine 20 mg, n=2, Excluding Outliers, ITT Population - Part A
[10] = Cilnidipine 20 mg, n=2, ITT Population - Part A
[11] = Cilnidipine 20 mg, n=2, by Baseline RCS, first subgroup, ITT Population - Part A
[12] = Cilnidipine 20 mg, Excluding Outliers, ITT Population - Part A
[13] = Cilnidipine 20 mg, Excluding Outliers, by Baseline RCS, first subgroup, ITT Population - Part A

## COCCOC(=O)C1=C(C)NC(C)=C(C(=O)OC/C=C/c2ccccc2)C1c1cccc([N+](=O)[O-])c1 (stereo not shown) [Cilnidipine, cilnidipine]
[1]
  Average Severity (0-10) of Weekly Symptomatic RP Attacks, Mean: 3.77
  Average Severity (0-10) of Weekly Symptomatic RP Attacks, Median: 3.77
  Average Severity of Weekly Symptomatic RP Attacks, Change from Baseline, Mean: 0.28
  Average Severity of Weekly Symptomatic RP Attacks, Change from Baseline, Median: 0.28
  Average Severity of Weekly Symptomatic RP Attacks, Percent Change from Baseline, Mean: 8.05%
  Average Severity of Weekly Symptomatic RP Attacks, Percent Change from Baseline, Median: 8.05%
[2]
  Average Severity (0-10) of Weekly Symptomatic RP Attacks, Mean: 3.77
  Average Severity (0-10) of Weekly Symptomatic RP Attacks, Median: 3.77
  Average Severity of Weekly Symptomatic RP Attacks, Change from Baseline, Mean: 0.28
  Average Severity of Weekly Symptomatic RP Attacks, Change from Baseline, Median: 0.28
  Average Severity of Weekly Symptomatic RP Attacks, Percent Change from Baseline, Mean: 8.05%
  Average Severity of Weekly Symptomatic RP Attacks, Percent Change from Baseline, Median: 8.05%
[3]
  Average Severity (0-10) of Weekly Symptomatic RP Attacks, Mean: 3.77
  Average Severity (0-10) of Weekly Symptomatic RP Attacks, Median: 3.77
  Average Severity of Weekly Symptomatic RP Attacks, Change from Baseline, Mean: 0.28
  Average Severity of Weekly Symptomatic RP Attacks, Change from Baseline, Median: 0.28
  Average Severity of Weekly Symptomatic RP Attacks, Percent Change from Baseline, Mean: 8.05%
  Average Severity of Weekly Symptomatic RP Attacks, Percent Change from Baseline, Median: 8.05%
[4]
  Average Severity of Weekly RP Attacks (All Attacks), Change from Baseline, Mean: 0.02
  Average Severity of Weekly RP Attacks (All Attacks), Change from Baseline, Median: 0.02
  Average Severity of Weekly RP Attacks (All Attacks), Mean: 3.05
  Average Severity of Weekly RP Attacks (All Attacks), Median: 3.05
  Average Severity of Weekly RP Attacks (All Attacks), Percent Change from Baseline, Mean: 0.55%
  Average Severity of Weekly RP Attacks (All Attacks), Percent Change from Baseline, Median: 0.55%
[5]
  Average Severity of Weekly Symptomatic RP Attacks (Mean): 3.77
  Average Severity of Weekly Symptomatic RP Attacks (Median): 3.77
  Average Severity of Weekly Symptomatic RP Attacks, Change from Baseline, Mean: 0.28
  Average Severity of Weekly Symptomatic RP Attacks, Change from Baseline, Median: 0.28
  Average Severity of Weekly Symptomatic RP Attacks, Percent Change from Baseline, Mean: 8.05%
  Average Severity of Weekly Symptomatic RP Attacks, Percent Change from Baseline, Median: 8.05%
[6]
  Average Severity of Weekly RP Attacks (All Attacks), Change from Baseline, Mean: 0.02
  Average Severity of Weekly RP Attacks (All Attacks), Change from Baseline, Median: 0.02
  Average Severity of Weekly RP Attacks (All Attacks), Mean: 3.05
  Average Severity of Weekly RP Attacks (All Attacks), Median: 3.05
  Average Severity of Weekly RP Attacks (All Attacks), Percent Change from Baseline, Mean: 0.55%
  Average Severity of Weekly RP Attacks (All Attacks), Percent Change from Baseline, Median: 0.55%
[7]
  Average Severity of Weekly RP Attacks (All Attacks), Percent Change from Baseline, Mean: 0.55%
  Average Severity of Weekly RP Attacks (All Attacks), Percent Change from Baseline, Median: 0.55%
[8]
  Average Severity of Weekly RP Attacks (All Attacks), Change from Baseline, Mean: 0.02
  Average Severity of Weekly RP Attacks (All Attacks), Change from Baseline, Median: 0.02
  Average Severity of Weekly RP Attacks (All Attacks), Mean: 3.05
  Average Severity of Weekly RP Attacks (All Attacks), Median: 3.05
[9]
  Average Severity (0-10) of Weekly Symptomatic RP Attacks, Mean: 2.30
  Average Severity (0-10) of Weekly Symptomatic RP Attacks, Median: 2.30
  Average Severity of Weekly Symptomatic RP Attacks, Change from Baseline, Mean: −1.44
  Average Severity of Weekly Symptomatic RP Attacks, Change from Baseline, Median: −1.44
  Average Severity of Weekly Symptomatic RP Attacks, Percent Change from Baseline, Mean: −32.85%
  Average Severity of Weekly Symptomatic RP Attacks, Percent Change from Baseline, Median: −32.85%
[10]
  Average Severity (0-10) of Weekly Symptomatic RP Attacks, Mean: 2.30
  Average Severity (0-10) of Weekly Symptomatic RP Attacks, Median: 2.30
  Average Severity of Weekly Symptomatic RP Attacks, Change from Baseline, Mean: −1.44
  Average Severity of Weekly Symptomatic RP Attacks, Change from Baseline, Median: −1.44
  Average Severity of Weekly Symptomatic RP Attacks, Percent Change from Baseline, Mean: −32.85%
  Average Severity of Weekly Symptomatic RP Attacks, Percent Change from Baseline, Median: −32.85%
[11]
  Average Severity (0-10) of Weekly Symptomatic RP Attacks, Mean: 2.30
  Average Severity (0-10) of Weekly Symptomatic RP Attacks, Median: 2.30
  Average Severity of Weekly Symptomatic RP Attacks, Change from Baseline, Mean: −1.44
  Average Severity of Weekly Symptomatic RP Attacks, Change from Baseline, Median: −1.44
  Average Severity of Weekly Symptomatic RP Attacks, Percent Change from Baseline, Mean: −32.85%
  Average Severity of Weekly Symptomatic RP Attacks, Percent Change from Baseline, Median: −32.85%
[12]
  Average Severity of Weekly RP Attacks (All Attacks), Change from Baseline, Mean: −1.07
  Average Severity of Weekly RP Attacks (All Attacks), Change from Baseline, Median: −1.07
  Average Severity of Weekly RP Attacks (All Attacks), Mean: 2.30
  Average Severity of Weekly RP Attacks (All Attacks), Median: 2.30
  Average Severity of Weekly RP Attacks (All Attacks), Percent Change from Baseline, Mean: −27.26%
  Average Severity of Weekly RP Attacks (All Attacks), Percent Change from Baseline, Median: −27.26%
[13]
  Average Severity of Weekly Symptomatic RP Attacks (Mean): 2.30
  Average Severity of Weekly Symptomatic RP Attacks (Median): 2.30
  Average Severity of Weekly Symptomatic RP Attacks, Change from Baseline, Mean: −1.44
  Average Severity of Weekly Symptomatic RP Attacks, Change from Baseline, Median: −1.44
  Average Severity of Weekly Symptomatic RP Attacks, Percent Change from Baseline, Mean: −32.85%
  Average Severity of Weekly Symptomatic RP Attacks, Percent Change from Baseline, Median: −32.85%
Cilnidipine 20 mg, ITT Population - Part A
  Average Severity of Weekly RP Attacks (All Attacks), Change from Baseline, Mean: −1.07

Source: patent US20240358693A1, “METHODS OF TREATING PAIN” (Aisa Pharma, Inc., priority 2023, published 2024)
